Tests used:
[1] = Tail bleeding model (bleeding time); format: in vivo, Sprague-Dawley rats; conditions: SEQ ID NO:2 5, 20, 40 mg/kg i.v. 5 min before, Rivaroxaban 10 mg/kg PO 1 hour before, Warfarin 0.5 mg/kg IV
Protocol: A total of 36 Sprague-Dawley male and female rats were utilized and divided into six groups comprising of 6 animals per group. Animal handling was performed according to guidelines of the National Institute of Health and the Association for Assessment and Accreditation of Laboratory Animal Care. Animals were fed ad libitum a commercial rodent diet (Teklad Certified Global 18% Protein Diet cat #: 2018SC). Animals had free access to autoclaved and acidified drinking water (pH between 2.5 and 3.5) obtained from the municipality supply. Animals were housed under standard laboratory conditions, air conditioned and filtered with adequate fresh air supply. Animals were kept in a climate controlled environment.
SEQ ID NO:2 (Biospring) (100 mg) was dissolved in 5 ml saline to form a stock solution of 20 mg/ml. Vehicle (saline) was provided by Pharmaseed as ready to use for i.v. administration. Rivaroxaban (Bayer, Pharmaseed Ltd) dosing solution was diluted at 10 mg/kg (Group 2M). Warfarin (Ceriliant, Pharmaseed Ltd) was diluted at 0.5 mg/kg (Group 3M). Both Rivaroxaban and Warfarin are clinical standards with anticoagulation activity. To obtain SEQ ID NO:2 dosing solution (2.5 mg/ml) for dose level of 5 mg/kg and dose volume of 2 ml/kg for i.v. injection, 0.375 ml of the above 20 mg/ml stock solution was diluted with 2.625 ml of saline (Group 4M). To obtain SEQ ID NO:2 dosing solution (10 mg/ml) for dose level of 20 mg/kg and dose volume of 2 ml/kg for i.v. injection, 1.5 ml of the above 20 mg/ml stock solution was diluted with 1.5 ml saline (Group 5M). To obtain SEQ ID NO:2 dosing solution (20 mg/ml) for dose level of 40 mg/kg and dose volume of 2 ml/kg for i.v. injection, the above 20 mg/ml stock used (Group 6).
Rats were intravenously injected five minutes before bleeding time assay. […] Three treated groups received SEQ ID NO:2 at dose levels of 5, 20 and 40 mg/kg saline solution. In each gender, control groups received saline Vehicle. A positive control group received Rivaroxaban (10 mg/kg). Rivaroxaban was administered by oral gavage 1 hour before bleeding time assay. A second positive control groups received Warfarin (0.5 mg/kg).
Male and female rats were anaesthetized by intraperitoneal injection of ketamine/xylazine. Bleeding time was monitored as described in Stupnisek et al. (2012), until blood flow stopped for a complete 30-sec interval or till the end of 30 min period. In deeply anaesthetized rats (placed in ventral position) the tail was transected with a surgical scalpel 2 mm from the tip (and submerged into a tube with 40 ml of saline at room temperature in vertical position) and the duration and amount of bleeding was measured to evaluate the hemostatic effect of the agents or saline administration. Following the completion of bleeding time evaluation, all rats were immediately sacrificed by CO2 asphyxiation.
Numerical results were given as means±standard errors. If applicable, statistical analysis was carried out using one-way ANOVA followed by Dunnett's Multiple Comparison post Test. A probability of 5% (p≤0.05) was regarded as significant.

[2] = Arteriovenous shunt model, thrombus weight; format: in vivo, Sprague-Dawley male rats; conditions: SEQ ID NO:2 33.3 mg/kg i.v. 5 min prior; Rivaroxaban 10 mg/kg p.o. 90 min prior; 15 min extracorporeal circulation
Protocol: This study was conducted at Shanghai WuXi AppTec Co., Ltd., and in accordance with WuXi IACUC standard animal procedures along with the IACUC guidelines that are in compliance with the Animal Welfare Act, the Guide for the Care and Use of Laboratory Animals, and the Office of Laboratory Animal Welfare (OLAW). Sprague-Dawley male rats with body weight ranging between 150-200 g (Vital River; Bejing, P.R. China) were fed ad libitum a rodent diet. Animals had free access to autoclaved and acidified drinking water. Animals were housed under standard laboratory conditions, air conditioned and filtered with adequate fresh air supply. Animals were kept in a climate controlled environment. Rivaroxaban (10 mg/kg) has been dissolved in water and stored at 4° C. 20 mg SEQ ID NO:2 (Biospring) was dissolved in 3 ml Saline, vortexed for 5 min., sonicated with a water bath ultrasonic for 1 minute to achieve 6.66 mg/ml SEQ ID NO:2. The animals were assigned to 3 dosing groups according to the body weight (see table 2). […] Extracorporeal circulation was maintained for 15 min, the thrombus weight formed on the thread was calculated by subtracting the average weight of the rough nylon thread. Significance of difference between control and treated groups was analyzed by performing analysis of variance (ANOVA) by EXCEL office software.

[3] = Prothrombin time in arteriovenous shunt model; format: in vivo, Sprague-Dawley male rats; conditions: SEQ ID NO:2 33.3 mg/kg i.v. 5 min prior; Rivaroxaban 10 mg/kg p.o. 90 min prior
Protocol: FIG. 2: Anti-coagulant activity of SEQ ID NO:2 in Arteriovenous Shunt model. Male rats were intravenously injected with saline (Vehicle) or SEQ ID NO:2 solution, according to their body weight. Rivaroxaban was orally administered to the positive control group. 5 to 90 minutes after administration, rats were anesthetized with pentobarbital-na (50 mg/kg). The left jugular vein and the right carotid artery of anesthetized rats were connected with two catheters. The thrombus weight formed on the thread was calculated by subtracting the average weight of the rough nylon thread (A). Prothrombin times were measured (B) and Activated partial thromboplastin times (APTT) were analysed (C). Each bar represents the mean±SEM (n=8 for vehicle and rivaroxaban groups, n=3 for SEQ ID NO:2 group), *p<0.05, **p<0.01, ***p<0.001 vs Vehicle.
The animals were assigned to 3 dosing groups according to the body weight (see table 2). Vehicle treated animals were intravenously injected with saline 90 min prior to shunt assay. The positive control treated animals were orally given Rivaroxaban 10 mg/kg at 90 min prior to shunt assay. SEQ ID NO:2 was intravenously injected 5 min prior to shunt assay.

[4] = Activated partial thromboplastin time (APTT) in arteriovenous shunt model; format: in vivo, Sprague-Dawley male rats; conditions: SEQ ID NO:2 33.3 mg/kg i.v. 5 min prior; Rivaroxaban 10 mg/kg p.o. 90 min prior

Row | Structure (SMILES) | group average bleeding time compared to matched vehicle group ([1]; female rats) | group average bleeding time compared to matched vehicle group ([1]; male rats) | thrombus weight, less than vehicle group [2] | Prothrombin times compared to vehicle group [3] | Activated Partial Thromboplastin Time (APTT) compared to vehicle group [4]
1 | O=C(NC[C@H]1CN(c2ccc(N3CCOCC3=O)cc2)C(=O)O1)c1ccc(Cl)s1 [Rivaroxaban, reference compound] | increased significantly | increased significantly | 26.5% | significantly prolonged | did not show any different
2 | CC(=O)CC(c1ccccc1)c1c(O)c2ccccc2oc1=O (stereo not shown) [Warfarin, reference compound] | increased significantly | increased significantly | – | – | –

Source: patent publication US11110115B2, “Nucleic acid molecule with anti-inflammatory and anti-coagulant and organ-protective properties” (APTAHEM AB, priority 2017, dated 2021)
